Calls of active or inactive are those of the source. The rule behind the calls is not given here.
Key:
P19 [1] = experiment: Neuritogenic activity in mouse P19 derived neurons assessed as increase in neurite number at 1 nM after 18 hrs by phase contrast microscopic method relative to control; format: functional
P19 [2] = experiment: Neuritogenic activity in mouse P19 derived neurons assessed as increase in neurite length at 1 nM after 18 hrs by phase contrast microscopic method relative to control; format: functional
[3] = target: T1, Amyloid-beta precursor protein (Homo sapiens, UniProt P05067); experiment: Inhibition of amyloid beta (1 to 42) aggregation (unknown origin)
T1 sequence (P05067 whole entry): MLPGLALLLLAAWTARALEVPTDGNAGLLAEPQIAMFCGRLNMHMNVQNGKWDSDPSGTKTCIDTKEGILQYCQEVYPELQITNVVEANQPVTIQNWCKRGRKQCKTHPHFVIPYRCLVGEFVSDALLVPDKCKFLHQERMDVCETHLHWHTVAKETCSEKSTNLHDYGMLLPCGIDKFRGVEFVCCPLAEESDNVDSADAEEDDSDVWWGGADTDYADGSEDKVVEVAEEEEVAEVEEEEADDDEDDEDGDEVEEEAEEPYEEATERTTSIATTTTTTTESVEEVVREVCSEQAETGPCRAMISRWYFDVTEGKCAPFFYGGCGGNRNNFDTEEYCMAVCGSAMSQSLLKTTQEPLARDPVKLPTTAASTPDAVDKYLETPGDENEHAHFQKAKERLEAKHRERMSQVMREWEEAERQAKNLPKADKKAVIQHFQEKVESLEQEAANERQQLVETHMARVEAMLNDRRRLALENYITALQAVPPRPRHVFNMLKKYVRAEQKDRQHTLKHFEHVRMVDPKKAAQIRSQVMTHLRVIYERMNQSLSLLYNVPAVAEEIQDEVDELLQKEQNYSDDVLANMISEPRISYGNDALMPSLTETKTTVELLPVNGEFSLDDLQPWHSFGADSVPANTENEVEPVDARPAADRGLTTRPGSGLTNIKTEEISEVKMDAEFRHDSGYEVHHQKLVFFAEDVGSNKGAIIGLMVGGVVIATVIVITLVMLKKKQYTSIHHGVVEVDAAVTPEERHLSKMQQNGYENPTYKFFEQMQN

[4] = Antioxidant activity assessed as inhibition of DPPH radical at 100 uM incubated for 30 mins under dark condition relative to control; format: functional
[5] = Cytotoxicity against mouse P19 derived neurons assessed as cell viability at 1000 nM after 18 hrs by XTT assay relative to control; format: toxicity; conditions: read-out: Activity
[6] = target: T1, Amyloid-beta precursor protein; experiment: Inhibition of human amyloid beta (1 to 42) aggregation at 100 uM incubated for 48 hrs under dark condition by ThT fluorescence assay relative to control
[7] = Cytotoxicity against mouse P19 derived neurons assessed as cell viability at 10000 nM after 18 hrs by XTT assay relative to control; format: toxicity; conditions: read-out: Activity
[8] = Cytotoxicity against mouse P19 derived neurons assessed as cell viability at 100 nM after 18 hrs by XTT assay relative to control; format: toxicity; conditions: read-out: Activity
Beta-secretase 1 [9] = target: T2, Beta-secretase 1 (Homo sapiens, UniProt P56817); experiment: Inhibition of BACE1 (unknown origin) at 25 uM using beta-secretase substrate 4 after 30 mins by fluorescence spectrophotometric method relative to control
T2 sequence (P56817 whole entry): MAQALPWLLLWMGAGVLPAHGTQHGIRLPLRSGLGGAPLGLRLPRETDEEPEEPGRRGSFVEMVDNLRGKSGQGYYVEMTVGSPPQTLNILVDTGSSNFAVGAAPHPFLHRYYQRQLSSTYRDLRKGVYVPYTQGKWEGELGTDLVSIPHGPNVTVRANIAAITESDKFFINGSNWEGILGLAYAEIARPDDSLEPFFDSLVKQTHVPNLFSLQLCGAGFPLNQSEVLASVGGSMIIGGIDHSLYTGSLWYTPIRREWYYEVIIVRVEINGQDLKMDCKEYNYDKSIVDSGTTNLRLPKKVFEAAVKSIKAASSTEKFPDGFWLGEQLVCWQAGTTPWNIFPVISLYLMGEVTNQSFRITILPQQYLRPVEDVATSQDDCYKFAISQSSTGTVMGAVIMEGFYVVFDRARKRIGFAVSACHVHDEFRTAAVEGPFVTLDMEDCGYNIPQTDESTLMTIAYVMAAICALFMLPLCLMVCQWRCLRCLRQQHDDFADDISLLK

[10] = Cytotoxicity against mouse P19 derived neurons assessed as cell viability at 10 nM after 18 hrs by XTT assay relative to control; format: toxicity; conditions: read-out: Activity
[11] = Cytotoxicity against mouse P19 derived neurons assessed as cell viability at 1 nM after 18 hrs by XTT assay relative to control; format: toxicity; conditions: read-out: Activity
Beta-secretase 1 [12] = target: T2, Beta-secretase 1; experiment: Inhibition of BACE1 (unknown origin) using beta-secretase substrate 4 after 30 mins by fluorescence spectrophotometric method
SH-SY5Y = experiment: Neuroprotective activity against aggregated amyloid beta-induced toxicity in human SH-SY5Y cells assessed as increase in cell viability at 1 to 10 uM preincubated for 2 hrs followed by aggregated amyloid beta addition measured after 24 hrs by MTT assay; format: functional, cell-based
[13] = target: T1, Amyloid-beta precursor protein; experiment: Inhibition of human amyloid beta (1 to 42) aggregation incubated for 48 hrs under dark condition by ThT fluorescence assay

| Structure (SMILES) | Activity (P19 [1]) | Activity (P19 [2]) | IC50 [3] | inhibition [4] | viability at 18 h, 1 µM [5] | inhibition [6] | viability at 18 h, 10 µM [7] | viability at 18 h, 0.1 µM [8] | inhibition (Beta-secretase 1 [9]) | viability at 18 h, 0.01 µM [10] | viability at 18 h, 0.001 µM [11] | IC50 (Beta-secretase 1 [12]) | Activity (SH-SY5Y) | IC50 [13] |
| --- | --- | --- | --- | --- | --- | --- | --- | --- | --- | --- | --- | --- | --- | --- |
| COC1=C2C[C@@H](C)C[C@H](OC)[C@H](O)[C@@H](C)/C=C(\C)[C@H](OC(N)=O)[C@@H](OC)/C=C\C=C(/C)C(=O)NC(=CC1=O)C2=O [GELDANAMYCIN] | 55.22% | 59.14% | – | – | – | – | – | – | – | – | – | – | – | – |
| O=c1c(O)c(-c2ccc(O)c(O)c2)oc2cc(O)cc(O)c12 [QUERCETIN] | 40.43% | 58.37% | 7.94 µM | – | – | – | – | – | – | – | – | – | – | – |
| O=C(/C=C/c1ccc(O)c(O)c1)NCc1cn(C[C@@H]2Cc3c([nH]c4ccccc34)CN2)nn1 | 123.04% | 57.54% | – | 92.3% | 120% | 84.1% | 140% | 125% | 21.7% | 139% | 130% | > 50 µM | – | – |
| OC[C@@H]1Cc2c([nH]c3ccccc23)CN1Cc1cn(C[C@@H]2Cc3c([nH]c4ccccc34)CN2)nn1 | 136.09% | 93.25% | – | 8.46% | 131% | 80.2% | 124% | 129% | 67.5% | 131% | 131% | 16.7 µM | Active | 66.4 µM |
| N[C@@H](Cc1c[nH]c2ccccc12)Cn1cc(-c2ccc(Cl)c(Cl)c2)nn1 | 118.7% | 84.13% | – | 0% | 108% | 67.6% | 93.8% | 116% | 61.5% | 128% | 139% | – | – | – |
| N[C@@H](Cc1c[nH]c2ccccc12)Cn1cc(CNC(=O)/C=C/c2ccc(O)c(O)c2)nn1 | 131.74% | 62.21% | – | 50.6% | 129% | 81.5% | 140% | 135% | 40% | 130% | 133% | – | – | – |
